In patent publication US10900063B2, “Measurement of Lp-PLA2 activity” (ASAHI KASEI PHARMA CORPORATION, priority 2016, dated 2021):

How the values were obtained:
[1] = neutral pH; cited from earlier work
[2] = biological target: T1, Lp-PLA2 (Homo sapiens, UniProt Q13093); assay: Effects of coexisting substances, reagents of invention; assay type: biochemical; conditions: for measurement value as percentage of sample with added water: J042 + water = 100%, concentrations as printed in the sample names; for Lp-PLA2 activity value / absorbance change per minute: pooled serum J042 mixed 9:1 with: Bil-C 20 mg/dL, Bil-F 20 mg/dL, hemolytic Hb 500 mg/dL, chyle 1400 FTU, Intralipos 1%, ascorbic acid 50 mg/dL
T1 construct: Individual serum No. 16, individual serum No. 78; from tissue; host or cells: serum and plasma (individual sera, pooled sera, heparin and citrated pooled plasma)
T1 sequence (Q13093 22-441): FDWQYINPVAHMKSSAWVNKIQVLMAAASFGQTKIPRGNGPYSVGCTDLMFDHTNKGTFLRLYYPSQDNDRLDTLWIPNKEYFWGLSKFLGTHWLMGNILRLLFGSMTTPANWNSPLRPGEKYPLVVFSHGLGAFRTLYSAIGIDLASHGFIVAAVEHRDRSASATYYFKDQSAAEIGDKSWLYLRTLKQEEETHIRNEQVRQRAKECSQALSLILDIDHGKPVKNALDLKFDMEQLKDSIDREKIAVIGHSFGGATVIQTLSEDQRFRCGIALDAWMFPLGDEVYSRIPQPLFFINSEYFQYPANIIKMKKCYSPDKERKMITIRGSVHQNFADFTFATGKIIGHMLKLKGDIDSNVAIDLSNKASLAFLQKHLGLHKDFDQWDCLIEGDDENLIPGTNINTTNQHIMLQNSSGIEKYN
Excerpt: (§1) The reagent compositions were the same as in Example 17.
(§2) The absorbance change values per minute (ΔmAbs/min) and activity values (nmol/min/mL and U/L) with each kind of reagent are shown in Tables 43 to 45. Given 100% as the measurement value of the sample with the added water, the measurement values for the other samples are shown as percentages.

[3] = biological target: T1, Lp-PLA2; assay: Effects of coexisting substances, PLAC Test; assay type: biochemical; conditions: for Lp-PLA2 activity value / ΔmAbs/min: coexisting substance added 1:9 to pooled serum J042; for measurement value as percentage of sample with added water (100%): pooled serum J042 plus coexisting substance vs J042 + water
Excerpt: as §1, §2

[4] = biological target: T1, Lp-PLA2; assay: Effects of coexisting substances, Lp-PLA2 FS; assay type: biochemical; conditions: for Lp-PLA2 activity value / ΔmAbs/min: coexisting substance added 1:9 to pooled serum J042; for measurement value as percentage of sample with added water (100%): pooled serum J042 plus coexisting substance vs J042 + water
Excerpt: as §1, §2

[5] = Specificity of recombinant lyso-PAF-PLD: PLD activity against lyso-PAF; assay type: biochemical; conditions: 0 to 0.5 mM lyso-PAF (C16); […] enzyme in R2
Description: (§3) To investigate the specificity of the recombinant lyso-PAF-PLD purified in Reference Example 3, activity against PAF(C16) and lyso-PAF(C16) was studied. The reagent compositions are as follows.
(§4) 5 μL samples containing PAF(C16) or lyso-PAF(C16) at concentrations of 0, 0.1, 0.2, 0.3, 0.4 or 0.5 mM were each incubated for 5 minutes at 37° C. with 15 μL of the R1 reagent (measuring points 1 to 15), after which 50 μL of the R2 reagent was added and reacted for 5 minutes (measuring points 16 to 31).

[6] = Specificity of recombinant lyso-PAF-PLD: PLD activity against PAF; assay type: biochemical; conditions: 0 to 0.5 mM PAF (C16); […] enzyme in R2
Description: as §3, §4

[7] = Thermal stability test of lyso-PAF-PLD (residual activity); assay type: physicochemical; conditions: incubated 60 minutes in 20 mM Tris-HCl (pH 7.5)
Description: The purified lyso-PAF-PLD was incubated for 60 minutes at different temperatures in a 20 mM Tris-HCl (pH 7.5) solution, and residual activity was investigated with the following reaction solution. C18(Plasm) LPC (Product No. 852465P, Avanti Polar Lipids, Inc.) was used as the substrate.
50 μL of the reaction solution was pre-incubated for 5 minutes at 37° C., 5 μL of the enzyme solution was added, and an enzyme reaction was performed for 1 minute at […]. 200 μL of the color developing solution was then added and reacted for 10 minutes at 37° C., after which absorbance was measured at 550 nm. The activity value was calculated according to the following formula.

[8] = PLD activity (kcat/Km) of lyso-PAF-PLD and site-specific mutants against lyso-PAF; assay type: biochemical; conditions: substrate lyso-PAF 0 to 5 mM, pH 7.5, 37° C.
Description: As a result, the pre-mutation PLD activity was 1385 (s^−1 mM^−1), but the mutant having G substituted for the M in the 45th position of SEQ ID NO: 9 (called M45G) and the similarly-named mutants M45A, M45L and M45D had PLD activities of 3059, 11411, 3284 and 4557 (s^−1mM^−1), respectively.
As a result, the PLD activity was 1385 (s^−1mM^−1) before the mutation, but the mutant having G substituted for F in the 257th position of […] (called F257G) and the similarly-named mutants F257E, F257R, F257K and F257W had PLD activities 1200, 1000, 1080, 1020 and 1320, respectively.
The PLD activity of the lyso-PAF-PLD mutants obtained by site-specific mutations was measured as follows. 1.211 g of Tris, 14.7 mg of calcium chloride dihydrate (Wako Pure Chemical Industries, Ltd.), 20 mL of lyso-PAF solution and 2 mL of 1% TODB solution were dissolved in 60 mL of purified water, the pH was adjusted to 7.5 (25° C.) with 1 N HCl, 4 mL of 100 U/mL choline oxidase, 4 mL of 100 U/mL peroxidase solution and 2 mL of 1% 4-AA solution were added and dissolved, and the total was brought to 100 mL with purified water to obtain a PLD activity measurement reagent for lyso-PAF (reaction reagent mixture). The lyso-PAF solution was adjusted so that the lyso-PAF concentration in the reaction reagent mixture was 0 to 5 mM. 3 mL of the reaction reagent mixture was pre-heated for 5 minutes at 37° C., and mixed with 50 μL of a solution of the lyso-PAF-PLD mutant with the introduced site-specific mutation diluted appropriately with 10 mM Tris-HCl (pH 7.5) to initiate a reaction, and the change in absorbance at 546 nm was measured for 1 minute between 8 and 9 minutes after initiation of the reaction. The activity value (μmole/min) was calculated given 36 (cm^2/μmole) as the millimolar extinction coefficient of the quinoneimine dye at 546 nm. The protein content (mg/mL) was calculated by the Bradford method using bovine serum albumin as the standard. Km and kcat were calculated by the Michaelis-Menten formula in accordance with the methods described in the aforementioned Theory and Practice on Enzymes and other Proteins [Tanpakushitsu/Kouso no kiso jikkenhou] and in Voet's Basic Biochemistry (Fourth Ed.) and the like. For purposes of calculation, the molecular weight of the enzyme was given as 33583.

Molecule: CCCCCCCCCCCCCC(=O)OCC(COP(=O)([O-])OCC[N+](C)(C)C)OC(=O)CCC(=O)Oc1ccc([N+](=O)[O-])cc1 (stereo not shown) [1-myristoyl-2-(4-nitrophenylsuccinyl)phosphatidylcholine]
- water solubility [1]: poor water solubility at neutral pH values

Molecule: C=CC1=C(C)/C(=C/c2[nH]c(Cc3[nH]c(/C=C4\NC(=O)C(C)=C4C=C)c(C)c3CCC(=O)O)c(CCC(=O)O)c2C)NC1=O [Bil-F]
- measurement value as percentage of sample with added water [2]: 101%
- Lp-PLA2 activity value [2]: 31.3 nmol/min/mL
- absorbance change per minute [2]: 22.1 ΔmAbs/min
- Lp-PLA2 activity value [3]: 145.5 nmol/min/mL
- ΔmAbs/min [3]: 188.4 ΔmAbs/min
- measurement value as percentage of sample with added water (100%) [3]: 105%
- Lp-PLA2 activity value [4]: 351.0 U/L
- ΔmAbs/min [4]: 29.4 ΔmAbs/min
- measurement value as percentage of sample with added water (100%) [4]: 102%

Molecule: O=C1O[C@H]([C@@H](O)CO)C(O)=C1O [ascorbic acid, L(+)-Ascorbic acid]
- measurement value as percentage of sample with added water [2]: 96%
- Lp-PLA2 activity value [2]: 29.6 nmol/min/mL
- absorbance change per minute [2]: 20.9 ΔmAbs/min
- Lp-PLA2 activity value [3]: 138.1 nmol/min/mL
- ΔmAbs/min [3]: 181.0 ΔmAbs/min
- measurement value as percentage of sample with added water (100%) [3]: 99%
- Lp-PLA2 activity value [4]: 343.5 U/L
- ΔmAbs/min [4]: 28.8 ΔmAbs/min
- measurement value as percentage of sample with added water (100%) [4]: 100%

B1: lyso-PAF-PLD: recombinant enzyme from Thermocrispum sp. NITE BP-01628, SEQ ID NO: 9, PLD activity against lyso-PAF but not PAF (protein)
chain: MTTRTTDNPWLDARVLNMAHAGGENEAPANTLYAFKRAVKLGANMLELDVQSTKDDQLVVIHNATVDQTTDGTGKVRDLTFEQVHELDAAYNFIPGRHAVPGEPPESYPLRGVRTGEKKPPPGYQPSDFAIPKLADVLEAFPRTPINIEIKGTSDADIPSFLHNAKLLARLLKKTGRTDFIVTSFNDLAVAKFHLLAPDIPIAPGMAGLAAYFLLGVKPMHGTVALQIPVRYQGLEIATPEFIRRAHADGYAVHVWFSGTAPDDEATYNRIIDSCADGLMPAYPALLERILDERGIERPGRPGVDPCG
- PLD activity against lyso-PAF [5]: exhibits PLD activity only against lyso-PAF
- PLD activity against PAF [6]: not against PAF
- thermal stability (residual activity) [7]: not inactivated by storage at 20 to 60 °C

B2: M45A: lyso-PAF-PLD mutant, A substituted for M in the 45th position of SEQ ID NO: 9 (protein)
chain: MTTRTTDNPWLDARVLNMAHAGGENEAPANTLYAFKRAVKLGANALELDVQSTKDDQLVVIHNATVDQTTDGTGKVRDLTFEQVHELDAAYNFIPGRHAVPGEPPESYPLRGVRTGEKKPPPGYQPSDFAIPKLADVLEAFPRTPINIEIKGTSDADIPSFLHNAKLLARLLKKTGRTDFIVTSFNDLAVAKFHLLAPDIPIAPGMAGLAAYFLLGVKPMHGTVALQIPVRYQGLEIATPEFIRRAHADGYAVHVWFSGTAPDDEATYNRIIDSCADGLMPAYPALLERILDERGIERPGRPGVDPCG
- Km [8]: 12 µM
- kcat [8]: 136 s⁻¹

B3: M45L: lyso-PAF-PLD mutant, L substituted for M in the 45th position of SEQ ID NO: 9 (protein)
chain: MTTRTTDNPWLDARVLNMAHAGGENEAPANTLYAFKRAVKLGANLLELDVQSTKDDQLVVIHNATVDQTTDGTGKVRDLTFEQVHELDAAYNFIPGRHAVPGEPPESYPLRGVRTGEKKPPPGYQPSDFAIPKLADVLEAFPRTPINIEIKGTSDADIPSFLHNAKLLARLLKKTGRTDFIVTSFNDLAVAKFHLLAPDIPIAPGMAGLAAYFLLGVKPMHGTVALQIPVRYQGLEIATPEFIRRAHADGYAVHVWFSGTAPDDEATYNRIIDSCADGLMPAYPALLERILDERGIERPGRPGVDPCG
- Km [8]: 23 µM
- kcat [8]: 147 s⁻¹

B4: M45D: lyso-PAF-PLD mutant, D substituted for M in the 45th position of SEQ ID NO: 9 (protein)
chain: MTTRTTDNPWLDARVLNMAHAGGENEAPANTLYAFKRAVKLGANDLELDVQSTKDDQLVVIHNATVDQTTDGTGKVRDLTFEQVHELDAAYNFIPGRHAVPGEPPESYPLRGVRTGEKKPPPGYQPSDFAIPKLADVLEAFPRTPINIEIKGTSDADIPSFLHNAKLLARLLKKTGRTDFIVTSFNDLAVAKFHLLAPDIPIAPGMAGLAAYFLLGVKPMHGTVALQIPVRYQGLEIATPEFIRRAHADGYAVHVWFSGTAPDDEATYNRIIDSCADGLMPAYPALLERILDERGIERPGRPGVDPCG
- Km [8]: 34 µM
- kcat [8]: 157 s⁻¹
